≈ marks a conversion by molar mass, not a printed value. Residues, ends and D or L forms follow the SMILES beside them.
Columns and labels:
[1] = test system: Methicillin-resistant S. aureus (MRSA) ATCC 33591; format: cell-based, Staphylococcus aureus; details: ATCC 33591, 1 h
Protocol: (§1) The minimum bactericidal concentration (MBC) was determined as previously described with minor modifications. Briefly, bacteria were cultured in the mid-log phase and diluted to 5 × 10^5 colony-forming unit (CFU)/mL in 10 mM sodium phosphate buffer (pH 7.4) with a 1% volume of TS broth. They were incubated for 1 h with various peptides which were two-fold diluted serially from 64 μg/mL to 0 μg/mL concentrations in a 96-well plate. The samples were inoculated TS agar plate and incubated overnight at 37 °C. The value of MBC was determined at the lowest concentrations at which no colonies were identified.
(§2) We used the CFU counting method to measure antibacterial activity, with all bacteria cultured to the mid-log phase in an appropriate broth medium. Bacterial CFUs were counted after overnight culture at 37 °C on TS or LB agar plates. The MBC value and antibacterial activity in blood components were determined as previously described. Mouse and human whole blood were collected and diluted with PBS (pH 7.4) to measure the ex vivo antibacterial activity of AMPR-22. For that test, AMPR-22 (10 μg) was added to each whole blood solution and incubated at 37 °C with shaking at 200 rpm. At each time point, it was incubated with bacteria (1 × 10^3 CFU) for 30 min. Each sample was inoculated on an LB agar plate, and CFU counting was performed. To measure the in vivo activity of AMPR-22, 1 × 10^8 CFU of bacteria were injected into BALB/c mice, and an hour later, 10 mg/kg of the test peptides were injected. Blood samples were collected by tail cut, serially diluted with PBS (pH 7.4), and inoculated on LB-agar plates, followed by CFU counting. To estimate the functional half-life of AMPR-22, 40 mg/kg of each tested peptide were injected into mice. Whole blood sampling was performed by cardiac puncture, and the plasma was isolated by centrifugation (2000× g, 15 min). The isolated plasma was incubated with bacteria (1 × 10^3 CFU) for an hour, and then the CFU counting method was performed.

[2] = test system: Staphylococcus aureus ATCC 29213; format: cell-based; details: ATCC 29213, 1 h, pH 7.4
Protocol: as §1, §2

[3] = test system: Pseudomonas aeruginosa ATCC 27853; format: cell-based; details: ATCC 27853, 1 h
Protocol: as §1, §2

[4] = test system: Carbapenem-resistant P. aeruginosa (CRPA), clinical isolate; format: cell-based, Pseudomonas aeruginosa; details: 1 h
Excerpt: Acinetobacter baumannii (ATCC 19606), B. subtilis (ATCC 6633), E. aerogenes (ATCC 13048), E. coli (ATCC 25922), E. faecalis (ATCC 19433), E. faecium (ATCC 19434), K. pneumoniae (ATCC 13883), P. aeruginosa (ATCC 27853), S. aureus (ATCC 29213), S. sindenensis (ATCC 23963), and MRSA (ATCC 33591) were purchased from the American Type Culture Collection (ATCC; Gaithersburg, MD, USA). Streptococcus pneumoniae (NCCP 14585), vancomycin-resistant E. faecium (NCCP 11522), and vancomycin-resistant S. aureus (NCCP 15872) were purchased from the National Culture Collection for Pathogens (NCCP; Cheongju, Korea). The isolation and use of carbapenem-resistant bacterial strains from a patient were approved (2015AN0129) by the Institutional Review Board (IRB) of Korea University Hospital. CRPA, CRKP, and CRAB were clinically isolated in Korea University Hospital (Seoul, Korea). CRPA was confirmed to be resistant to piperacillin, piperacillin-tazobactam, ceftazidime, imipenem, meropenem, gentamicin, amikacin, and ciprofloxacin. CRAB was confirmed to be resistant to piperacillin, piperacillin-tazobactam, cefepime, ceftazidime, imipenem, meropenem, gentamicin, amikacin, and ciprofloxacin. CRKP was confirmed to be resistant to piperacillin-tazobactam, cefepime, ceftazidime, imipenem, gentamicin, and ciprofloxacin. All strains were stored at –80 °C in 50% glycerol and 50% Luria-Bertani (LB) or tryptic soy (TS) broth, grown on LB or TS plates, and aerated at 37 °C.
as §1, §2

Row | Compound | MBC Value, MRSA [1] | MBC Value, S. aureus [2] | MBC Value, P. aeruginosa [3] | MBC Value, CRPA [4]
1 | CC[C@H](C)[C@H](NC(=O)CNC(=O)[C@H](CCSC)NC(=O)CNC(=O)[C@@H](NC(=O)[C@H](C)NC(=O)[C@H](CCSC)NC(=O)[C@H](Cc1ccccc1)NC(=O)[C@@H](NC(=O)CNC(=O)[C@H](Cc1ccccc1)NC(=O)CNC(=O)CNC(=O)[C@H](CCCCN)NC(=O)[C@H](CCCCN)NC(=O)[C@H](CCSC)NC(=O)[C@H](CCSC)NC(=O)[C@H](CCCCN)NC(=O)[C@@H](N)CCCCN)[C@@H](C)O)[C@@H](C)CC)C(=O)N[C@@H](CCCNC(=N)N)C(=O)O [d66K] (H-KKMMKKGGFGTFMAIGMGIR-OH) | 4 µg/mL (≈ 1.83 µM) | 8 µg/mL (≈ 3.65 µM) | 4 µg/mL (≈ 1.83 µM) | 4 µg/mL (≈ 1.83 µM)
2 | CC[C@H](C)[C@H](NC(=O)CNC(=O)[C@H](CCSC)NC(=O)CNC(=O)[C@@H](NC(=O)[C@H](C)NC(=O)[C@H](CCSC)NC(=O)[C@H](Cc1ccccc1)NC(=O)[C@@H](NC(=O)CNC(=O)[C@H](Cc1ccccc1)NC(=O)[C@H](CCCCN)NC(=O)CNC(=O)[C@H](CCCCN)NC(=O)[C@H](CCCCN)NC(=O)[C@H](CCSC)NC(=O)[C@H](CCSC)NC(=O)[C@H](CCCCN)NC(=O)[C@@H](N)CCCCN)[C@@H](C)O)[C@@H](C)CC)C(=O)N[C@@H](CCCNC(=N)N)C(=O)O [d64G] (H-KKMMKKGKFGTFMAIGMGIR-OH) | 1 µg/mL (≈ 0.442 µM) | 2 µg/mL (≈ 0.885 µM) | 2 µg/mL (≈ 0.885 µM) | 4 µg/mL (≈ 1.77 µM)
3 | CC[C@H](C)[C@H](NC(=O)[C@H](C)NC(=O)[C@H](CCSC)NC(=O)[C@H](Cc1ccccc1)NC(=O)[C@@H](NC(=O)CNC(=O)[C@H](Cc1ccccc1)NC(=O)[C@H](CCCCN)NC(=O)CNC(=O)CNC(=O)[C@H](CCCCN)NC(=O)[C@H](CCCCN)NC(=O)[C@H](CCSC)NC(=O)[C@H](CCSC)NC(=O)[C@H](CCCCN)NC(=O)[C@@H](N)CCCCN)[C@@H](C)O)C(=O)NCC(=O)N[C@@H](CCSC)C(=O)NCC(=O)N[C@@H](CCCNC(=N)N)C(=O)O [d77I] (H-KKMMKKGGKFGTFMAIGMGR-OH) | 4 µg/mL (≈ 1.81 µM) | 8 µg/mL (≈ 3.63 µM) | 4 µg/mL (≈ 1.81 µM) | 8 µg/mL (≈ 3.63 µM)
4 | CC[C@H](C)[C@H](NC(=O)CNC(=O)[C@H](CCSC)NC(=O)[C@@H](NC(=O)[C@H](C)NC(=O)[C@H](CCSC)NC(=O)[C@H](Cc1ccccc1)NC(=O)[C@@H](NC(=O)CNC(=O)[C@H](Cc1ccccc1)NC(=O)[C@H](CCCCN)NC(=O)CNC(=O)CNC(=O)[C@H](CCCCN)NC(=O)[C@H](CCCCN)NC(=O)[C@H](CCSC)NC(=O)[C@H](CCSC)NC(=O)[C@H](CCCCN)NC(=O)[C@@H](N)CCCCN)[C@@H](C)O)[C@@H](C)CC)C(=O)N[C@@H](CCCNC(=N)N)C(=O)O [d74G] (H-KKMMKKGGKFGTFMAIMGIR-OH) | 4 µg/mL (≈ 1.77 µM) | 4 µg/mL (≈ 1.77 µM) | 4 µg/mL (≈ 1.77 µM) | 8 µg/mL (≈ 3.54 µM)
5 | CC[C@H](C)[C@H](NC(=O)CNC(=O)[C@H](CCSC)NC(=O)CNC(=O)[C@@H](NC(=O)[C@H](C)NC(=O)[C@H](Cc1ccccc1)NC(=O)[C@@H](NC(=O)CNC(=O)[C@H](Cc1ccccc1)NC(=O)[C@H](CCCCN)NC(=O)CNC(=O)CNC(=O)[C@H](CCCCN)NC(=O)[C@H](CCCCN)NC(=O)[C@H](CCSC)NC(=O)[C@H](CCSC)NC(=O)[C@H](CCCCN)NC(=O)[C@@H](N)CCCCN)[C@@H](C)O)[C@@H](C)CC)C(=O)N[C@@H](CCCNC(=N)N)C(=O)O [d71M] (H-KKMMKKGGKFGTFAIGMGIR-OH) | 4 µg/mL | 4 µg/mL | 2 µg/mL | 8 µg/mL
6 | CC[C@H](C)[C@H](NC(=O)CNC(=O)[C@H](CCSC)NC(=O)CNC(=O)[C@@H](NC(=O)[C@H](C)NC(=O)[C@H](CCSC)NC(=O)[C@@H](NC(=O)CNC(=O)[C@H](Cc1ccccc1)NC(=O)[C@H](CCCCN)NC(=O)CNC(=O)CNC(=O)[C@H](CCCCN)NC(=O)[C@H](CCCCN)NC(=O)[C@H](CCSC)NC(=O)[C@H](CCSC)NC(=O)[C@H](CCCCN)NC(=O)[C@@H](N)CCCCN)[C@@H](C)O)[C@@H](C)CC)C(=O)N[C@@H](CCCNC(=N)N)C(=O)O [d70F] (H-KKMMKKGGKFGTMAIGMGIR-OH) | 128 µg/mL (≈ 59 µM) | – | 128 µg/mL (≈ 59 µM) | >256 µg/mL
7 | CC[C@H](C)[C@H](NC(=O)CNC(=O)[C@H](CCSC)NC(=O)CNC(=O)[C@@H](NC(=O)[C@H](C)NC(=O)[C@H](CCSC)NC(=O)[C@H](Cc1ccccc1)NC(=O)[C@@H](NC(=O)CNC(=O)[C@H](Cc1ccccc1)NC(=O)[C@@H](NC(=O)CNC(=O)CNC(=O)[C@H](CO)NC(=O)[C@H](CCCCN)NC(=O)[C@H](CCSC)NC(=O)[C@H](CCSC)NC(=O)[C@H](CCCCN)NC(=O)[C@@H](N)CCCCN)[C@@H](C)O)[C@@H](C)O)[C@@H](C)CC)C(=O)N[C@@H](CCCNC(=N)N)C(=O)O [K2] (H-KKMMKSGGTFGTFMAIGMGIR-OH) | 64 µg/mL (≈ 28.4 µM) | 32 µg/mL (≈ 14.2 µM) | 16 µg/mL (≈ 7.11 µM) | 16 µg/mL (≈ 7.11 µM)
8 | CC[C@H](C)[C@H](NC(=O)CNC(=O)[C@H](CCSC)NC(=O)CNC(=O)[C@@H](NC(=O)[C@H](C)NC(=O)[C@H](CCSC)NC(=O)[C@H](Cc1ccccc1)NC(=O)CNC(=O)[C@H](Cc1ccccc1)NC(=O)[C@H](CCCCN)NC(=O)CNC(=O)CNC(=O)[C@H](CCCCN)NC(=O)[C@H](CCCCN)NC(=O)[C@H](CCSC)NC(=O)[C@H](CCSC)NC(=O)[C@H](CCCCN)NC(=O)[C@@H](N)CCCCN)[C@@H](C)CC)C(=O)N[C@@H](CCCNC(=N)N)C(=O)O [d69T] (H-KKMMKKGGKFGFMAIGMGIR-OH) | 1 µg/mL (≈ 0.451 µM) | 2 µg/mL (≈ 0.902 µM) | 4 µg/mL (≈ 1.8 µM) | 4 µg/mL (≈ 1.8 µM)
9 | CC[C@H](C)[C@H](NC(=O)CNC(=O)[C@H](CCSC)NC(=O)CNC(=O)[C@@H](NC(=O)[C@H](C)NC(=O)[C@H](CCSC)NC(=O)[C@H](Cc1ccccc1)NC(=O)[C@@H](NC(=O)[C@H](Cc1ccccc1)NC(=O)[C@H](CCCCN)NC(=O)CNC(=O)CNC(=O)[C@H](CCCCN)NC(=O)[C@H](CCCCN)NC(=O)[C@H](CCSC)NC(=O)[C@H](CCSC)NC(=O)[C@H](CCCCN)NC(=O)[C@@H](N)CCCCN)[C@@H](C)O)[C@@H](C)CC)C(=O)N[C@@H](CCCNC(=N)N)C(=O)O [d68G] (H-KKMMKKGGKFTFMAIGMGIR-OH) | 4 µg/mL (≈ 1.77 µM) | 4 µg/mL (≈ 1.77 µM) | 4 µg/mL (≈ 1.77 µM) | 8 µg/mL (≈ 3.54 µM)
10 | CC[C@H](C)[C@H](NC(=O)CNC(=O)[C@H](CCSC)NC(=O)CNC(=O)[C@H](C)NC(=O)[C@H](CCSC)NC(=O)[C@H](Cc1ccccc1)NC(=O)[C@@H](NC(=O)CNC(=O)[C@H](Cc1ccccc1)NC(=O)[C@H](CCCCN)NC(=O)CNC(=O)CNC(=O)[C@H](CCCCN)NC(=O)[C@H](CCCCN)NC(=O)[C@H](CCSC)NC(=O)[C@H](CCSC)NC(=O)[C@H](CCCCN)NC(=O)[C@@H](N)CCCCN)[C@@H](C)O)C(=O)N[C@@H](CCCNC(=N)N)C(=O)O [d73I] (H-KKMMKKGGKFGTFMAGMGIR-OH) | >256 µg/mL | – | >256 µg/mL | >256 µg/mL
